Results from ChEMBL document CHEMBL1143738, “Inhibition of S. aureus alpha-hemolysin and B. anthracis lethal toxin by beta-cyclodextrin derivatives” (Bioorg Med Chem, 2007).
Calls of active or inactive are those of the source. The rule behind the calls is not given here.

Tests used:
RAW264.7 [1] = assay: Toxicity against mouse RAW264.7 cells upto 100 uM; assay type: cell-based
Erythrocyte [2] = assay: Inhibition of Staphylococcus aureus alpha-hemolysin-induced cytotoxicity against rabbit RBC; assay type: functional, cell-based; conditions: Oryctolagus cuniculus
[3] = Toxicity against mouse RAW264.7 cells; assay type: cell-based
RAW264.7 [4] = assay: Inhibition of Bacillus anthracis lethal toxin-induced cytotoxicity in mouse RAW264.7 cells; assay type: functional, cell-based
[5] = target: T1, Alpha-hemolysin (Staphylococcus aureus) (UniProt P09616); assay: Inhibition of Staphylococcus aureus alpha-hemolysin reconstituted in diphytanoylphosphatidylcholine lipid membranes assessed as inhibition of channel conductance at 2 uM
T1 sequence (whole entry): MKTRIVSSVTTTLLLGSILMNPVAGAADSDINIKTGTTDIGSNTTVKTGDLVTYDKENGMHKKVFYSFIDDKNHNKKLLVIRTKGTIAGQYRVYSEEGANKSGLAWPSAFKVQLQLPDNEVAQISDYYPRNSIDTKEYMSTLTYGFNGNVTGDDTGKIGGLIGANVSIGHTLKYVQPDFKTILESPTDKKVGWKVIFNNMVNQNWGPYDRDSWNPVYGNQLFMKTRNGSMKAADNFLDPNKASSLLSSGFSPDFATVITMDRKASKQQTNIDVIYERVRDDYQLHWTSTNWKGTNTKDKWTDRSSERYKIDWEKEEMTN

RAW264.7 [6] = assay: Protection against Bacillus anthracis lethal toxin-induced cell death in mouse RAW264.7cells assessed as cell viability in MTS colorimetric assay; assay type: functional, cell-based
[7] = target: Protective antigen (Bacillus anthracis) (UniProt P13423); assay: Inhibition of Bacillus anthracis protective antigen 63 reconstituted in diphytanoylphosphatidylcholine lipid membranes assessed as inhibition of channel conductance at 5 uM
Chain of Protective antigen (Bacillus anthracis) (P13423 whole entry): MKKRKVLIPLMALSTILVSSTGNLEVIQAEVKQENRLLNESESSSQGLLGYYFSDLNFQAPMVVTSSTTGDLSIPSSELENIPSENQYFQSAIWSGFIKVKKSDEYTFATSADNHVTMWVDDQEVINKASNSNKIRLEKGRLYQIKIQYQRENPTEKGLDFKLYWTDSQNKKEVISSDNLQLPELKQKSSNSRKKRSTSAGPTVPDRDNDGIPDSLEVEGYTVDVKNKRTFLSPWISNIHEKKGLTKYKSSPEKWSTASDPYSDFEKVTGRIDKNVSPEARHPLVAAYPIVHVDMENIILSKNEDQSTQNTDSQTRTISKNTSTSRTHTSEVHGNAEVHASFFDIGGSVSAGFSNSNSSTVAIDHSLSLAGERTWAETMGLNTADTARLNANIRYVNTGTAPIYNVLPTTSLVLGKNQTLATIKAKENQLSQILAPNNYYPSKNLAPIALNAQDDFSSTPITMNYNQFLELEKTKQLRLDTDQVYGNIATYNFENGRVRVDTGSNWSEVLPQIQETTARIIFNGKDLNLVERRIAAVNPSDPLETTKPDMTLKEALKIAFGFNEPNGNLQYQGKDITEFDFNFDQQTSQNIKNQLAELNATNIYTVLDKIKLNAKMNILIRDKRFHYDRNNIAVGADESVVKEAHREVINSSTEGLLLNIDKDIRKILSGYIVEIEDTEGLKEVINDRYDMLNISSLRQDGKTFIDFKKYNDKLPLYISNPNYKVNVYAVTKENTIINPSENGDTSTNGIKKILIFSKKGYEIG

Erythrocyte [8] = assay: Protection against Staphylococcus aureus alpha-hemolysin-induced cell death in rabbit RBC assessed as cell viability in MTS colorimetric assay; assay type: functional, cell-based; conditions: Oryctolagus cuniculus

Row | SMILES | Activity (RAW264.7 [1]) | IC50 (Erythrocyte [2]) | IC50 [3] | IC50 (RAW264.7 [4]) | Activity [5] | Activity (RAW264.7 [6]) | Activity [7] | Activity (Erythrocyte [8])
1 | Cl.Cl.Cl.Cl.Cl.Cl.Cl.Cl.Cl.Cl.Cl.Cl.Cl.Cl.NCCC[C@H](N)CC(=O)NC[C@H]1O[C@@H]2O[C@H]3[C@H](O)[C@@H](O)[C@@H](O[C@H]4[C@H](O)[C@@H](O)[C@@H](O[C@H]5[C@H](O)[C@@H](O)[C@@H](O[C@H]6[C@H](O)[C@@H](O)[C@@H](O[C@H]7[C@H](O)[C@@H](O)[C@@H](O[C@H]8[C@H](O)[C@@H](O)[C@@H](O[C@H]1[C@H](O)[C@H]2O)O[C@@H]8CNC(O)[C@@H](N)CCCN)O[C@@H]7CNC(=O)[C@@H](N)CCCN)O[C@@H]6CNC(=O)[C@@H](N)CCCN)O[C@@H]5CNC(=O)[C@@H](N)CCCN)O[C@@H]4CNC(=O)[C@@H](N)CCCN)O[C@@H]3CNC(=O)[C@@H](N)CCCN (stereo partly drawn) | Non-toxic | > 25 µM | 0.6 µM | > 25 µM | – | – | – | –
2 | N[C@@H](COCc1ccccc1)CC(=O)NC[C@H]1O[C@@H]2O[C@H]3[C@H](O)[C@@H](O)[C@@H](O[C@H]4[C@H](O)[C@@H](O)[C@@H](O[C@H]5[C@H](O)[C@@H](O)[C@@H](O[C@H]6[C@H](O)[C@@H](O)[C@@H](O[C@H]7[C@H](O)[C@@H](O)[C@@H](O[C@H]8[C@H](O)[C@@H](O)[C@@H](O[C@H]1[C@H](O)[C@H]2O)O[C@@H]8CNC(O)[C@@H](N)COCc1ccccc1)O[C@@H]7CNC(=O)[C@@H](N)COCc1ccccc1)O[C@@H]6CNC(=O)[C@@H](N)COCc1ccccc1)O[C@@H]5CNC(=O)[C@@H](N)COCc1ccccc1)O[C@@H]4CNC(=O)[C@@H](N)COCc1ccccc1)O[C@@H]3CNC(=O)[C@@H](N)COCc1ccccc1.O=C(O)C(F)(F)F.O=C(O)C(F)(F)F.O=C(O)C(F)(F)F.O=C(O)C(F)(F)F.O=C(O)C(F)(F)F.O=C(O)C(F)(F)F.O=C(O)C(F)(F)F (stereo partly drawn) | Non-toxic | 6.1 µM | 0.6 µM | > 25 µM | – | – | – | –
3 | Cl.Cl.Cl.Cl.Cl.Cl.Cl.N[C@@H](CS)CC(=O)NC[C@H]1O[C@@H]2O[C@H]3[C@H](O)[C@@H](O)[C@@H](O[C@H]4[C@H](O)[C@@H](O)[C@@H](O[C@H]5[C@H](O)[C@@H](O)[C@@H](O[C@H]6[C@H](O)[C@@H](O)[C@@H](O[C@H]7[C@H](O)[C@@H](O)[C@@H](O[C@H]8[C@H](O)[C@@H](O)[C@@H](O[C@H]1[C@H](O)[C@H]2O)O[C@@H]8CNC(O)[C@@H](N)CS)O[C@@H]7CNC(=O)[C@@H](N)CS)O[C@@H]6CNC(=O)[C@@H](N)CS)O[C@@H]5CNC(=O)[C@@H](N)CS)O[C@@H]4CNC(=O)[C@@H](N)CS)O[C@@H]3CNC(=O)[C@@H](N)CS (stereo partly drawn) | Non-toxic | > 25 µM | 0.6 µM | > 25 µM | – | – | – | –
4 | CC(C)(C)OC(=O)N[C@@H](CCCN)CC(=O)NC[C@H]1O[C@@H]2O[C@H]3[C@H](O)[C@@H](O)[C@@H](O[C@H]4[C@H](O)[C@@H](O)[C@@H](O[C@H]5[C@H](O)[C@@H](O)[C@@H](O[C@H]6[C@H](O)[C@@H](O)[C@@H](O[C@H]7[C@H](O)[C@@H](O)[C@@H](O[C@H]8[C@H](O)[C@@H](O)[C@@H](O[C@H]1[C@H](O)[C@H]2O)O[C@@H]8CNC(O)[C@H](CCCN)NC(=O)OC(C)(C)C)O[C@@H]7CNC(=O)[C@H](CCCN)NC(=O)OC(C)(C)C)O[C@@H]6CNC(=O)[C@H](CCCN)NC(=O)OC(C)(C)C)O[C@@H]5CNC(=O)[C@H](CCCN)NC(=O)OC(C)(C)C)O[C@@H]4CNC(=O)[C@H](CCCN)NC(=O)OC(C)(C)C)O[C@@H]3CNC(=O)[C@H](CCCN)NC(=O)OC(C)(C)C.Cl.Cl.Cl.Cl.Cl.Cl (stereo partly drawn) | Non-toxic | 5.6 µM | 0.6 µM | 3.5 µM | Active | Active | Active | Active
5 | N[C@@H](CSCc1ccccc1)CC(=O)NC[C@H]1O[C@@H]2O[C@H]3[C@H](O)[C@@H](O)[C@@H](O[C@H]4[C@H](O)[C@@H](O)[C@@H](O[C@H]5[C@H](O)[C@@H](O)[C@@H](O[C@H]6[C@H](O)[C@@H](O)[C@@H](O[C@H]7[C@H](O)[C@@H](O)[C@@H](O[C@H]8[C@H](O)[C@@H](O)[C@@H](O[C@H]1[C@H](O)[C@H]2O)O[C@@H]8CNC(O)[C@@H](N)CSCc1ccccc1)O[C@@H]7CNC(=O)[C@@H](N)CSCc1ccccc1)O[C@@H]6CNC(=O)[C@@H](N)CSCc1ccccc1)O[C@@H]5CNC(=O)[C@@H](N)CSCc1ccccc1)O[C@@H]4CNC(=O)[C@@H](N)CSCc1ccccc1)O[C@@H]3CNC(=O)[C@@H](N)CSCc1ccccc1.O=C(O)C(F)(F)F.O=C(O)C(F)(F)F.O=C(O)C(F)(F)F.O=C(O)C(F)(F)F.O=C(O)C(F)(F)F.O=C(O)C(F)(F)F.O=C(O)C(F)(F)F (stereo partly drawn) | Non-toxic | 10.6 µM | 0.6 µM | > 25 µM | – | – | – | –
6 | Cl.Cl.Cl.Cl.Cl.Cl.Cl.N[C@@H](CO)CC(=O)NC[C@H]1O[C@@H]2O[C@H]3[C@H](O)[C@@H](O)[C@@H](O[C@H]4[C@H](O)[C@@H](O)[C@@H](O[C@H]5[C@H](O)[C@@H](O)[C@@H](O[C@H]6[C@H](O)[C@@H](O)[C@@H](O[C@H]7[C@H](O)[C@@H](O)[C@@H](O[C@H]8[C@H](O)[C@@H](O)[C@@H](O[C@H]1[C@H](O)[C@H]2O)O[C@@H]8CNC(O)[C@@H](N)CO)O[C@@H]7CNC(=O)[C@@H](N)CO)O[C@@H]6CNC(=O)[C@@H](N)CO)O[C@@H]5CNC(=O)[C@@H](N)CO)O[C@@H]4CNC(=O)[C@@H](N)CO)O[C@@H]3CNC(=O)[C@@H](N)CO (stereo partly drawn) | Non-toxic | > 25 µM | 0.6 µM | > 25 µM | – | – | – | –
